EC50 and CC50 data for 2 compounds are collected here from ChEMBL document CHEMBL5620351, “Advancing beyond reverse transcriptase inhibitors: The new era of hepatitis B polymerase inhibitors” (Eur J Med Chem, 2023).

SMILES strings stand for the structures. pEC50: −log10 of the molar value.

Test [1] concerns Hepatitis B virus. The test can be described thus: Antiviral activity against wild type HBV infected in human HepG2 cells assessed as reduction in HBV DNA replication by RT-PCR analysis. In kind it is functional, organism-based.
For test [2], the system named is Hepatitis B virus. The test can be described thus: Antiviral activity against HBV infected in human HepG2.2.15.7 cells assessed as reduction in HBV DNA replication by TR-PCR analysis. In kind it is functional, organism-based.
Test [3] relates to Hepatitis B virus. The test can be described thus: Antiviral activity against lamivudine-resistant HBV infected in human HepG2 cells assessed as reduction in HBV DNA replication by RT-PCR analysis. In kind it is functional, organism-based.
In test [4] the test system is Hepatitis B virus. The test can be described thus: Antiviral activity against adefovir-resistant HBV infected in human HepG2 cells assessed as reduction in of intracellular HBV DNA incubated for 5 days by Southern blotting analysis. The conditions noted are these: HepG2, 120 h. In kind it is functional, organism-based.
Test [5] has as its system Huh-7. The test can be described thus: Cytotoxicity against human Huh-7 cells assessed as reduction in cell viability by Neutral Red staining based assay. Format: functional.
For test [6], the system named is Hepatitis B virus. The test can be described thus: Antiviral activity against lamivudine resistant HBV infected in human HepG2 cells assessed as reduction in of intracellular HBV DNA incubated for 5 days by Southern blotting analysis. In kind it is functional, organism-based. To be noted: HepG2, 120 h.
Test [7] concerns Huh-7. The test can be described thus: Cytotoxicity against human Huh-7 cells assessed as reduction in cell viability by LDH release assay. In kind it is functional.
The subject of test [8] is Hepatitis B virus. The test can be described thus: Antiviral activity against HBV infected in human HePAD38 cells assessed as reduction in of intracellular HBV DNA incubated for 5 days by Southern blotting analysis. In kind it is functional, organism-based. To be noted: HePAD38, 120 h.

For the compound `Clc1ccc(/C=C/c2cc(Cl)cc(Cl)c2)cc1`, the results for the pEC50 in the test on Hepatitis B virus [1], in the test with Hepatitis B virus [2] and in the test with Hepatitis B virus [3] were 4.88, 4.84 and 4.79, respectively.
With `Nc1nc(O)c2ncn([C@H]3CC[C@@H](CO)O3)c2n1`, the pEC50 in the test on Hepatitis B virus [4] is 6.18; with Hepatitis B virus [6], 6.05; with Hepatitis B virus [8], 6.52. The CC50 is 26 µM in the test with Huh-7 [5] and 97 µM with Huh-7 [7].
